Patent publication US20230277533A1, “THERAPEUTIC COMBINATIONS COMPRISING UBIQUITIN-SPECIFIC-PROCESSING PROTEASE 1 (USP1) INHIBITORS AND POLY (ADP-RIBOSE) POLYMERASE (PARP) INHIBITORS” (KSQ Therapeutics, Inc., priority 2020, published 2023)
Like-named read-outs stand apart in the source and are kept apart here.

Experiments:
Test in all cases: Colony formation (CFU) assay
Assay type in all cases: cell-based
[1] = test system: HMC18; conditions: HMC18, breast
How it was run: (§1)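 Cells were plated in six-well plates at a density giving well-separated colonies after about 14 days, with medium containing DMSO, USP1 inhibitor, niraparib or olaparib refreshed on day 8. Colonies were stained with 0.1% crystal violet, the dye extracted into 10% acetic acid and read at 565 nm.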

[2] = test system: HS934T; conditions: melanoma
How it was run: as §1

[3] = test system: NCIH1651; conditions: Homo sapiens, NCI-H1651; NCIH1651, lung
How it was run: as §1

[4] = test system: HPAFII; conditions: Homo sapiens, HPAF-II, pancreas
How it was run: as §1

[5] = test system: AN3CA; conditions: Homo sapiens, AN3-CA, uterus
How it was run: as §1

[6] = test system: MG63; conditions: Homo sapiens, MG-63; MG63, bone
How it was run: as §1

[7] = test system: VMRCRCZ; conditions: kidney
How it was run: as §1

[8] = test system: BICR18; conditions: BICR18, head and neck
How it was run: as §1

[9] = test system: SNU213; conditions: SNU213, pancreas
How it was run: as §1

[10] = test system: SNU626; conditions: SNU626, nervous system
How it was run: as §1

[11] = test system: SKES1; conditions: Homo sapiens, SK-ES1; SKES1, bone
How it was run: as §1

[12] = test system: GOTO; conditions: nervous system
How it was run: as §1

[13] = test system: LU99; conditions: Homo sapiens, Lu-99; LU99, lung
How it was run: as §1

[14] = test system: PK45H; conditions: pancreas
How it was run: as §1

[15] = test system: HEC151; conditions: HEC151, endometrial
How it was run: as §1

[16] = test system: NCIH1573; conditions: Homo sapiens, NCI-H1573; NCIH1573, lung
How it was run: as §1

[17] = test system: SNU1041; conditions: SNU1041, head and neck
How it was run: as §1

[18] = test system: NCIH1648; conditions: Homo sapiens, NCI-H1648; NCIH1648, lung
How it was run: as §1

[19] = test system: OV56; conditions: OV56, ovary
How it was run: as §1

[20] = test system: OVA2BUR; conditions: ovary
How it was run: as §1

[21] = test system: KU1919; conditions: Homo sapiens, KU-19-19; KU1919, bladder
How it was run: as §1

[22] = test system: COV434; conditions: COV434, ovary
How it was run: as §1

[23] = test system: OVK18; conditions: OVK18, ovary
How it was run: as §1

[24] = test system: NCIH1373; conditions: Homo sapiens, NCI-H1373; NCIH1373, lung
How it was run: as §1

[25] = test system: JIMT1; conditions: Homo sapiens, JIMT-1; JIMT1, breast
How it was run: as §1

[26] = test system: SUM149PT; conditions: Homo sapiens, breast
How it was run: as §1

[27] = test system: PECAPJ49; conditions: PECAPJ49, head and neck
How it was run: as §1

[28] = test system: CAPAN1; conditions: Homo sapiens, CAPAN-1; CAPAN1, pancreas
How it was run: as §1

[29] = test system: HT115
How it was run: as §1

[30] = test system: BT474; conditions: Homo sapiens, BT-474; BT474, breast
How it was run: as §1

[31] = test system: PECAPJ15; conditions: PECAPJ15, head and neck
How it was run: as §1

[32] = test system: NCIH838; conditions: Homo sapiens, NCI-H838; NCIH838, lung
How it was run: as §1

[33] = test system: HBCx6; conditions: HBCx6, breast
How it was run: as §1

[34] = test system: HS888T; conditions: bone
How it was run: as §1

[35] = test system: HUO3N1; conditions: HUO3N1, bone
How it was run: as §1

[36] = test system: HCC95; conditions: Homo sapiens; HCC95, lung
How it was run: as §1

[37] = test system: SKOV3_OR1a1null; conditions: ovary
How it was run: as §1

[38] = test system: SN12C; conditions: Homo sapiens, kidney
How it was run: as §1

Compound	IC50 [1] [nM]	IC50 [2] [nM]	IC50 [3] [nM]	IC50 [4] [nM]	IC50 [5] [nM]	IC50 [6] [nM]	IC50 [7] [nM]	IC50 [8] [nM]	IC50 [9] [nM]	IC50 [10] [nM]	IC50 [11] [nM]	IC50 [12] [nM]	IC50 [13] [nM]	IC50 [14] [nM]	IC50 [15] [nM]	IC50 [16] [nM]	IC50 [17] [nM]	IC50 [18] [nM]	IC50 [19] [nM]	IC50 [20] [nM]	also measured
COc1ncnc(C2CC2)c1-c1ncc2cnn(Cc3ccc(-c4nc(C(F)(F)F)cn4C)cc3)c2n1 [Formula II, 6-(4-cyclopropyl-6-methoxypyrimidin-5-yl)-1-(4-(1-methyl-4-(trifluoromethyl)-1H-imidazol-2-yl)benzyl)-1H-pyrazolo[3,4-d]pyrimidine]	> 300	> 300	85.7	> 300	> 300	> 300	> 300	> 300	> 300	> 300	> 300	> 300	35.4	294	> 300	227	> 300	> 300	> 300	> 300	IC50 [21]: 25 nM; IC50 [22]: > 300 nM; IC50 [23]: > 300 nM; IC50 [24]: > 300 nM; IC50 [25]: 16.6 nM; IC50 [26]: > 300 nM; IC50 [27]: > 300 nM; IC50 [28]: > 300 nM; IC50 ([29]; HT115, colon, read-out: IC50): 150 nM; IC50 [30]: > 300 nM; IC50 [31]: > 300 nM; IC50 [32]: > 300 nM; IC50 [33]: > 300 nM; IC50 [34]: > 300 nM; IC50 [35]: > 300 nM; IC50 [36]: > 300 nM; IC50 [37]: > 300 nM; IC50 [38]: 64.7 nM
NC(=O)c1cccc2cn(-c3ccc([C@@H]4CCCNC4)cc3)nc12 [Niraparib, niraparib, reference compound]	> 300	> 300	32.4	> 300	101	> 300	> 300	> 300	> 300	> 300	23.6	22.4	88.6	> 300	> 300	15.2	> 300	> 300	> 300	> 300	IC50 [21]: 181 nM; IC50 [22]: 106 nM; IC50 [23]: > 300 nM; IC50 [24]: > 300 nM; IC50 [25]: 25.3 nM; IC50 [26]: 135 nM; IC50 [27]: > 300 nM; IC50 [28]: 185 nM; IC50 ([29]; HT115): 15.6 nM; IC50 [30]: > 300 nM; IC50 [31]: > 300 nM; IC50 [32]: > 300 nM; IC50 [33]: 30.4 nM; IC50 [34]: > 300 nM; IC50 [35]: > 300 nM; IC50 [36]: > 300 nM; IC50 [37]: > 300 nM; IC50 [38]: > 300 nM
